From patent publication US12350273B2, “Treatment of SMA” (Hoffmann-La Roche Inc., priority 2017, dated 2025) come the findings set out here.

Test [1] relates to SMN protein. Briefly: Study BP39055 Part 1: SMN protein in Type 2 and 3 SMA patients. Type of test: in vivo, human. An excerpt: Study BP39055 is a two-part operationally seamless, multi-center, randomized, placebo-controlled, double-blind study to investigate the safety, tolerability, pharmacokinetics (PK), pharmacodynamics (PD) and efficacy of RO7034067 in Type 2 and 3 spinal muscular atrophy (SMA) patients. The study consists of an exploratory dose-finding part (Part 1) and a confirmatory part (Part 2).
The primary objective of Part 1 is to evaluate the safety, tolerability, PK and PD of RO7034067 in patients with Type 2 and Type 3 (ambulant or non-ambulant) SMA, and to select the dose for Part 2 of the study.
Part 1 was a double-blinded, placebo-controlled, randomized (2:1 RO7034067:placebo), exploratory dose-finding study in Type 2 and Type 3 (ambulant and non-ambulant) SMA patients. This will be followed by an open-label extension (OLE) at the same dose as selected for Part 2 of the study.
Part 1 of the study enrolled patients in two age groups: • Group A: adolescent and adult patients aged 12 25 years • Group B: children aged 2 11 years RO7034067 dose levels were investigated in a staggered, dose escalation manner in both age groups.
The dose recommended by the IMC for this age group according to the target AUC0-24 h,ss of 700 ng[…]h/mL was 0.02 mg/kg (see IMC recommendation of 12 Dec. 2016 in Appendix 1); 10 patients aged 3-11 years were enrolled in Cohort B1. • At the same time point (i.e., once safety and tolerability were confirmed based on the review of at least 4 weeks of treatment at 3 mg once daily in 9 patients in Cohort A1), enrolment was opened to another cohort of 9 adult and adolescent patients (Cohort A2) receiving RO7034067 5 mg once daily (see IMC recommendation of 19 Jan. 2017 in Appendix 1). As per protocol, the higher dose level was determined such as to achieve maximum SMN protein increase, without exceeding the exposure cap (Cmax 400 ng/mL; mean AUC0 24 h,ss 2000 ng[…]h/mL); 10 patients aged 13[…]24 years were enrolled in Cohort A2. • Based on the review of a minimum of 4 weeks of treatment at 0.02 mg/kg in 9 patients enrolled in Cohort B1, the following recommendations were made by the IMC: i) to increase the dose in these patients to 0.05 mg/kg without exceeding a cap dose of 3 mg, and ii) to enroll a minimum of 9 additional patients aged 2[…]11 years at a dose of 0.05 mg/kg without exceeding a cap dose of 3 mg (Cohort B2), targeting at least 5 patients aged 2[…]6 years (see IMC recommendation of 13 Mar. […] At the same time point, enrollment was opened to another cohort of 9 patients at the dose of 0.25 mg/kg without exceeding a cap dose of 5 mg (Cohort B3), determined such as to achieve maximum Survival of Motor Neuron (SMN) protein increase, without exceeding the exposure cap (Cmax 400 ng/mL; mean AUC0-24 h,ss 2000 ng[…]h/mL); 10 patients aged 2[…]11 years were enrolled in Cohort B3. • Upon completion of at least 12 weeks of placebo-controlled treatment by a minimum of 9 patients of each cohort, the IMC reviewed all available data from the cohort to make the decision to switch placebo patients to active treatment at the dose tested in their respective cohort. Dates of the IMC decisions to switch placebo patients to active treatment in the respective cohorts are provided in Section 1.3. • For the last cohort in Part 1 (Cohort B3), all available safety, tolerability, PK and PD data following completion of a minimum of 4 weeks treatment by the 9th patient (including all available data for the 10th patient of the last cohort who was enrolled approximately 1 week after the 9th patient, and all available data from all previous cohorts) were reviewed by the IMC in order to select the dose to be administered in Part 2 of the study. This dose selection was confirmed by the external iDMC following review of the same data package. […]

Test [2] concerns human iPSCs. Nature of the test: Cell cycle analysis of human iPSCs (flow cytometry). Type of test: cell-based. Particulars: for percentage of events in G1 phase, mean / percentage of events in G2 phase, mean / percentage of events in S phase, mean: 24 h. As to the method: For the analysis of the cell cycle, monkey stem cells were detached with Accutase (Stem Cell Technologies) and plated at 15000 cells/cm2 in 6 well plates coated with Matrigel (BD Biosciences) in MT medium supplemented with 10 ng/ml ActivinA, 15 ng/ml FGF2, and 10 μM Rock inhibitor. Cells were expanded for 1 day and then synchronized by starvation for 7 h in MT medium without supplements FGF2 and ActivinA. Before flow cytometry, cells were incubated for 24 h with fresh MT medium containing supplements FGF2 and ActivinA and test items at 80 nM, 400 nM, and 2000 nM or 30 nM rapamycin as positive control to arrest cells in G1 phase. Human stem cells were detached with Accutase (Stem Cell Technologies) and plated at 40000 cells/cm2 in 6 well plates coated with Matrigel (BD Biosciences) in mTeSR1 supplemented with 10 μM Rock Inhibitor Y-27632 (Sigma-Aldrich). Cells were expanded for 3 days with daily medium change. Since human iPSCs lose their properties during starvation by growth factor withdrawal, stem cells were synchronized with 200 ng/ml Nocodazole (Sigma-Aldrich) for 5 h and washed subsequently 2 times with mTesR1 Medium. Before flow cytometry, cells were incubated for 24 h with fresh TesR1 medium containing test items at 80 nM, 400 nM, and 2000 nM or 30 nM rapamycin as positive control to arrest cells in G1 phase.
For cell cycle analysis, human iPSCs were washed with PBS, detached with Accutase (Stem Cell Technologies) and collected by centrifugation. Cells were stained for 1 h at 37° C. with 600 ul of 7 AAD/Saponin/RNAse mix ([…] 7 AAD (#559925, BD), 50 μg/ml RNase, and 0.03% Saponin dissolved in FACS buffer (PBS, 5% FBS, 10 mM Hepes)). Cynomolgus monkey iPSCs were washed with PBS, detached with Accutase (Stem Cell Technologies) and collected by centrifugation. Cells were stained for 30 min at 37° C. in 300 ul standard MT medium (with FGF2 and ActivinA) containing 1 ul Vybrant Dye Cycle Violet Stain (#V35003, 1000× stock, Invitrogen) per ml medium. Additionally 2 ul 7 AAD (50 μg/ml 7 AAD) were added without permeabilization to label dead cells; cells were incubated for 10 min at 37° C. Flow cytometry analysis was performed using a Canto II cytometer (BD Biosciences) and data were analysed with the FlowJo software.

Take `Cc1cn2nc(-c3cc(=O)n4cc(N5CCNC6(CC6)C5)ccc4n3)cc(C)c2n1` [RO7034067, 7-(4,7-diazaspiro[2.5]octan-7-yl)-2-(2,8-dimethylimidazo[1,2-b]pyridazin-6-yl)pyrido[1,2-a]pyrimidin-4-one]: the “Fold-Increase from the Baseline in SMN Protein on Day 28, median” value in test [1] (0.02 mg) is 1.09 fold; in test [1] (0.05 mg) it was 1.51 fold; in test [1] (0.15 mg/kg) it was 1.67 fold; in test [1] (0.25 mg/kg), 1.96 fold; in test [1] (3 mg) it was 2.25 fold; in test [1] (5 mg) it was 2.51 fold. Besides, the “SMN protein increase versus baseline (median)” value in test [1] (0.25 mg/kg, 2-11 year age group) stood at 96%. The “median SMN protein increase versus baseline” value in test [1] (5 mg, SMA patients 12-25 years old) came out at 151%. Moreover, the “percentage of events in G1 phase, mean” value came out at 44.6% in test [2] (80 nM), 40.8% in test [2] (400 nM) and 37.6% in test [2] (2000 nM). For the same compound, the “percentage of events in G2 phase, mean” value in test [2] (80 nM) was 29.2%; in test [2] (400 nM), 31.4%; in test [2] (2000 nM), 29.3%. Further, the figures for the “percentage of events in S phase, mean” value in test [2] (80 nM), in test [2] (400 nM) and in test [2] (2000 nM) were 26.2%, 27.8% and 33.1%, respectively. Also, in test [2] (concentration-dependent), the “effect on cell cycle” value is on record as “cell cycle arrest in S phase”.
